Tests used:
[1] = tested on: Human ciliated epithelium cells
Procedure: The toleration of liposomal PVP-iodine solutions for nasal applications was studied by investigating the influence of different test substances on ciliated epithelium cells, the most sensible cells of the mucous membrane. A cytotoxic damage of these cells which would cause a restriction of the niucoclliar clearance can. be determined by a detectable decrease of the ciliary vibration.
Human ciliated epithelium cells were analysed by an in-vitro method which enables the determination of the ciliary activity or ciliary vibration. The corresponding cells were exposed and incubated with 100 je.I test substance at a temperature of 37 C. After an incubation period of 5 minutes the ciliary vibration, was measured.
By using this in-vltro method a nutriant solution (Dulbeco) as standard, a 0.2% chlorohexidine solution (typical antiseptic agent), conventional polyvidone iodine solutions (Betaisodona) .of different concentrations (5.0%, 2.5% and 1.25% PVP-iodine) and a liposomal solution containing 4.5% of PVP-iodine were tested.

human viruses = details: aqueous solution mixed with viral suspensions; cited from earlier work

Row | Compound | ciliary activity / ciliary vibration [1] | antiviral effect on viral suspensions (human viruses)
1 | N=C(NCCCCCCNC(=N)NC(=N)Nc1ccc(Cl)cc1)NC(=N)Nc1ccc(Cl)cc1 [chlorohexidine] | decrease of the measured ciliary vibration | –
2 | poly(1-vinyl-2-pyrrolidin-2-on)-iodine complex [PVP-iodine] | – | effective antiviral compound
